± gives the expanded uncertainty stated by the source.
Experiment: xn = mol fraction of the nth substance listed
Settings: 100 kPa, Liquid; for speed of sound: Frequency=3 MHz, Linear variable-path acoustic interferometer; for mass density: Pycnometric method

C=C(C)C(=O)OC [methyl methacrylate] + CC#N
Settings	mass density, 293.15 K [kg/m3]	mass density, 298.15 K [kg/m3]	mass density, 303.15 K [kg/m3]	speed of sound, 293.15 K [m/s]	speed of sound, 298.15 K [m/s]	speed of sound, 303.15 K [m/s]
x2 = 0	943.38 ± 1	937.64 ± 1	931.9 ± 1	1200.5 ± 1.6	1183.6 ± 1.6	1168.5 ± 1.6
x2 = 0.0688	938.34 ± 1	932.64 ± 1	926.94 ± 1	1207.5 ± 1.6	1190.6 ± 1.6	1175.5 ± 1.6
x2 = 0.1376	932.76 ± 1	927.09 ± 1	921.42 ± 1	1214.3 ± 1.6	1197.2 ± 1.6	1182 ± 1.6
x2 = 0.1957	927.6 ± 1	921.95 ± 1	916.3 ± 1	1220 ± 1.6	1202.7 ± 1.6	1187.4 ± 1.6
x2 = 0.2716	920.18 ± 1	914.56 ± 1	908.94 ± 1	1227.3 ± 1.6	1209.7 ± 1.6	1194.1 ± 1.6
x2 = 0.3344	913.41 ± 1	907.81 ± 1	902.21 ± 1	1233.2 ± 1.6	1215.3 ± 1.6	1199.5 ± 1.6
x2 = 0.4135	903.99 ± 1	898.42 ± 1	892.85 ± 1	1240.5 ± 1.6	1222.3 ± 1.6	1206.2 ± 1.6
x2 = 0.4916	893.58 ± 1	888.04 ± 1	882.5 ± 1	1247.5 ± 1.6	1229 ± 1.6	1212.6 ± 1.6
x2 = 0.5649	882.66 ± 1	877.15 ± 1	871.64 ± 1	1254.2 ± 1.6	1235.3 ± 1.6	1218.6 ± 1.6
x2 = 0.6386	870.38 ± 1	864.91 ± 1	859.43 ± 1	1261 ± 1.6	1241.7 ± 1.6	1224.8 ± 1.6
x2 = 0.7084	857.36 ± 1	851.92 ± 1	846.47 ± 1	1267.7 ± 1.6	1248 ± 1.6	1230.8 ± 1.6
x2 = 0.7927	839.5 ± 1	834.09 ± 1	828.68 ± 1	1276.4 ± 1.6	1256.2 ± 1.6	1238.7 ± 1.6
x2 = 0.855	824.53 ± 1	819.15 ± 1	813.77 ± 1	1283.5 ± 1.6	1263 ± 1.6	1245.1 ± 1.6
x2 = 0.9073	810.58 ± 1	805.23 ± 1	799.87 ± 1	1290.3 ± 1.6	1269.3 ± 1.6	1251.2 ± 1.6
x2 = 0.9497	798.21 ± 1	792.88 ± 1	787.55 ± 1	1296.3 ± 1.6	1275 ± 1.6	1256.6 ± 1.6
